Patent US5049637A, “1,2,3,4,10,14b-hexahydrodibenzo[c,f]pyrazino-[1,2-a]azepino derivatives and 10-aza, 10-oxa and 10-thia analogues” (Monash University, priority 1987, dated 1991)
Structures can show the parent of a compound that is named as a salt.

Columns and labels:
[1] = tested on: isolated guinea pig ileum (KCl-induced contractions); test: Block of KCl-induced contraction of the isolated guinea-pig ileum; conditions: block of contractions of isolated guinea pig ileum induced by KCl
Description: (§1) Compounds according to formula I were tested for their ability to block contractions of the isolated guinea pig ileum induced by KCl, carbachol, or histamine at a concentration of 10^-7 M. Ileum preparations were prepared according to standard methodology. The concentrations shown are the minimum required to show activity.

[2] = tested on: isolated guinea pig ileum (carbachol-induced contractions); test: Block of carbachol-induced contraction of the isolated guinea-pig ileum; conditions: block of contractions of isolated guinea pig ileum induced by carbachol
Description: as §1

[3] = tested on: isolated guinea pig ileum (histamine-induced contractions); test: Block of histamine-induced contraction of the isolated guinea-pig ileum; conditions: for minimal effective concentration: Cavia porcellus, isolated guinea pig ileum, histamine 10^-7 M, read-out: Effect on Histamine: minimum concentration required to show activity; for Effect on Histamine: block of contractions of isolated guinea pig ileum induced by histamine at 10^-7 M
Description: (§2) The compound of Example 2 was found in low concentrations to inhibit contractions of the guinea-pig isolated ileum and rat isolated stomach strip caused by histamine and 5-hydroxytryptamine respectively. […] Concomitantly, the depressor effects of histamine were blocked, as were the pressor effects of 5-hydroxytryptamine for over 30 minutes. The pressor effects of 5-hydroxytryptamine in anaesthetised and pithed rats were inhibited by intravenous doses of 0.3-1.0 mg/kg body weight. Slightly higher doses reduced the bradycardia and the depressor response (the Bezold-Jarisch reflex mediated by 5-HT3 receptors) to 5-hydroxytryptamine in anaesthetised rats. The drug inhibited oedema in the rat paw caused by intraplantar 5-hydroxytryptamine. […] In mice it inhibited diarrhoea caused by L-5-hydroxytryptophan. In guinea pigs, intravenous doses of 0.03 mg/kg and above reduced the bronchoconstrictor effects of histamine and 5-hydroxytryptamine.
as §1

[4] = Penetration into the central nervous system; assay type: in vivo; conditions: in vivo
[5] = tested on: central nervous system (spinal flexor reflex); test: Spinal flexor reflex in the rat; assay type: in vivo; conditions: mianserin in low doses
[6] = tested on: central nervous system (morphine induced catalepsy); test: Morphine induced catalepsy in the rat; assay type: in vivo
Description: (§3) Thus doses of 1 mg/kg given intraperitoneally attenuated the facilitation of spinal reflex activity caused by p-chloroamphetamine, and also the facilitation of spinal reflexes induced by fenfluramine in spinal and decerebrate rats. […] The drug in doses of 10 and 20 mg/kg intraperitoneally and in doses of 20 mg/kg by mouth attenuated morphine-induced catalepsy. We conclude therefore that this drug is an orally active drug with central actions, particularly affecting serotonergic mechanisms, but has no effect in vitro (Table 1). […] Thus it was found after intravenous doses of 0.03 mg/kg to reduce histamine and 5-hydroxytryptamine bronchoconstriction in the guinea pig.

[7] = tested on: central nervous system (L-5-hydroxytryptophan-induced head twitch); test: L-5-hydroxytryptophan-induced head twitch in the mouse; assay type: in vivo; conditions: mianserin in low doses
[8] = tested on: effects of histamine and 5-hydroxytryptamine on blood pressure and heart rate; test: Effects of histamine and 5-hydroxytryptamine on blood pressure and heart rate in the chloral-anaesthetized rat; assay type: in vivo
[9] = tested on: bronchoconstrictor effects of histamine and 5-hydroxytryptamine; test: Histamine and 5-hydroxytryptamine induced bronchoconstriction in guinea pigs; assay type: in vivo, guinea pig; conditions: Cavia porcellus, intravenous, read-out: Intravenous dose reducing histamine and 5-hydroxytryptamine bronchoconstriction
Description: as §2
In cats, the effects of the ganglion stimulant McNeil -A-343 and histamine were reduced. Following intravenous injection into guinea-pigs, […] reduced histamine and 5-hydroxytryptamine induced broncho-constriction. Concentrations of 1 μg/ml or greater relaxed the isolated rat uterus in vitro.
The compound of Example 4 when injected into rats at intravenous doses of 0.3 mg/kg or greater reduced the pressor effects of 5-hydroxytryptamine and also the depressor effects of histamine. In cats, the effect of histamine was reduced after these doses also.
as §3

[10] = tested on: spinal reflex activity (serotonergic mechanisms); test: Facilitation of spinal reflexes by p-chloroamphetamine, fenfluramine or clonidine in spinal and decerebrate rats; assay type: in vivo, rat
Description: as §3

Row | Structure (SMILES) | Effect on KCl [1] | Effect on Carbachol [2] | minimal effective concentration [3] | Effect on Histamine [3] | other results
1 | NC(=O)CCN1CCN2c3ccccc3Cc3ccccc3C2C1 (stereo not drawn) [Example 14, 2-(2-Carboxamidoethyl)-1,2,3,4,10,14b-hexahydrodibenzo[c,f]pyrazino[1,2-a]azepine] | - (no effect) | - (no effect) | 0.01 to 0.1 µM | ++ | Ability to penetrate into the CNS [4]: able to penetrate into the CNS
2 | CCNC(=O)N1CCN2c3ccccc3Cc3ccccc3C2C1 (stereo not drawn) [Example 10, 2-(N-Ethylcarboxamido)-1,2,3,4,10,14b-hexahydrodibenzo[c,f]pyrazino[1,2-a]azepine] | - (no effect) | - (no effect) | 0.1 µM | + (block) | –
3 | CN1CCN2c3ccccc3Cc3ccccc3C2C1 (stereo not drawn) [mianserin, 1,2,3,4,10,14b-hexahydro-2-methyldibenzo [c,f]pyrazino[1,2-a]azepine, reference compound] | – | – | – | – | Action in spinal flexor reflex test [5]: effective; Action in morphine induced catalepsy test ([6]; rat, mianserin in low doses): effective; Action in L-5-hydroxytryptophan-induced head twitch test [7]: effective
4 | CCNC(=N)N1CCN2c3ccccc3Cc3ccccc3C2C1 (stereo not drawn) [Example 11, 2-(N-Ethylcarboxamidino)-1,2,3,4,10,14b-hexahydrodibenzo[c,f]pyrazino[1,2-a]azepine hydrochloride] | - (no effect) | - (no effect) | 0.01 to 0.1 µM | ++ | Block of effect on heart rate of both histamine and 5-hydroxytryptamine [8]: not; Effect on blood pressure of both histamine and 5-hydroxytryptamine [8]: complete block
5 | NC(=O)N1CCN2c3ccccc3Cc3ccccc3C2C1 (stereo not drawn) [Example 5, 2-Carboxamido-1,2,3,4,10,14b-hexahydrodibenzo [c,f]pyrazino[1,2-a]azepine] | - (no effect) | - (no effect) | 0.01 to 0.1 µM | ++ | minimal effective dose [9]: 0.03 mg/kg; Morphine-induced catalepsy ([6]; 20 mg/kg by mouth): attenuated; Morphine-induced catalepsy ([6]; 10 and 20 mg/kg intraperitoneally): attenuated; Facilitation of spinal reflex activity caused by p-chloroamphetamine ([10]; 1 mg/kg intraperitoneally): attenuated; Facilitation of spinal reflexes induced by fenfluramine ([10]; 1 mg/kg intraperitoneally, spinal and decerebrate rats): attenuated; Facilitation of spinal reflexes caused by clonidine ([10]; at these dose levels (1 mg/kg intraperitoneally)): did not antagonise
6 | CCNC(=NC#N)N1CCN2c3ccccc3Cc3ccccc3C2C1 (stereo not drawn) [Example 7, 2-(N-Cyano-N'-ethyl-carboxamidino)-1,2,3,4,10,14b-hexahydrodibenzo[c,f]pyrazino[1,2-a]azepine] | - (no effect) | - (no effect) | 0.01 to 0.1 µM | ++ | –
7 | NC(=O)CN1CCN2c3ccccc3Cc3ccccc3C2C1 (stereo not drawn) [Example 13, 2-(Carboxamidomethyl)-1,2,3,4,10,14b-hexahydrodibenzo [c,f]pyrazino[1,2-a]azepine hydrochloride] | - (no effect) | - (no effect) | 0.01 to 0.1 µM | ++ | Ability to penetrate into the CNS [4]: able to penetrate into the CNS
8 | CCNC(=S)N1CCN2c3ccccc3Cc3ccccc3C2C1 (stereo not drawn) [Example 12, 2-(N-Ethylthiocarboxamido)-1,2,3,4,10,14b-hexahydrodibenzo[c,f]pyrazino[1,2-a]azepine] | - (no effect) | - (no effect) | 0.01 to 0.1 µM | ++ | –
9 | N=C(NCCOc1ccccc1)N1CCN2c3ccccc3Cc3ccccc3C2C1 (stereo not drawn) [Example 9, 2-(N-2-Phenoxyethylcarboxamidino)-1,2,3,4,10,14b-hexahydrodibenzo[c,f]pyrazino[1,2-a]azepine hydrochloride] | - (no effect) | - (no effect) | 0.01 to 0.1 µM | ++ | –
